Experimental findings from US20240216354A1, “IMMUNOMODULATORY IMIDE DRUGS AS ZETA-CHAIN-ASSOCIATED PROTEIN KINASE 70 (ZAP70) AGONISTS AND USES THEREOF” (Dana-Farber Cancer Institute, Inc., priority 2019, published 2024) are described below.

Molecules are shown by their SMILES.

The assay concerns the target T1, Zap-70 (Homo sapiens, UniProt P43403).
T1 sequence (P43403 1-619): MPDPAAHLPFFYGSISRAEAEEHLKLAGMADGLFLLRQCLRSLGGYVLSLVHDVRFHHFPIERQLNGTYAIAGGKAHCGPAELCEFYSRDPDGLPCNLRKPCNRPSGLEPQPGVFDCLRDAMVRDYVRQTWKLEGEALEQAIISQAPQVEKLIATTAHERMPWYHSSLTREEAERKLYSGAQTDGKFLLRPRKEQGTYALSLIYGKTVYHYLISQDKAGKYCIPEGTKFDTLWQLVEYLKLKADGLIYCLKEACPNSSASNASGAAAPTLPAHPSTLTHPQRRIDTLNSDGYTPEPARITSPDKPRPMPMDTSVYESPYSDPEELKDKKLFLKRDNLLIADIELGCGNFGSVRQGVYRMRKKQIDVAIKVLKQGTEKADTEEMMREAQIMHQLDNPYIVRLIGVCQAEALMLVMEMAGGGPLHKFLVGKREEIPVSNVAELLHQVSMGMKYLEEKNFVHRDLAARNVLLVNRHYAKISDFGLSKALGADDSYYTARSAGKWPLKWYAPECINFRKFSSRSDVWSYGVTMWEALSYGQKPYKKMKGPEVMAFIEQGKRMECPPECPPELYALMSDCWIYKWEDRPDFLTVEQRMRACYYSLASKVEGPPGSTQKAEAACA
The experiment in a line: Immunoblotting of p-Zap-70 in Jurkat cells. It counts as cell-based. The following applies: 16 h. How it is done: (A) PBMCs were cultured with pomalidomide (“Pom”) (0.01-1 μM) for 16 h. […] (B) PBMCs were cultured with pomalidomide (0.1 and 1 μM) for the indicated time periods. (C) PBMCs were cultured with lenalidomide (“Len”) (1 μM) for 16 h. (D) Primary T-cells from healthy volunteer were cultured with pomalidomide (0.25-1 μM) for 16 h. (E) Jurkat cells were cultured with pomalidomide (0.5 and 1 μM) for 16 h. Whole cell lysates were subjected to immunoblotting (A-E) using indicated Abs. (F) Jurkat cells were cultured with pomalidomide (0.01-1 μM) or lenalidomide (0.01-1 μM) for 72 h. Cell growth was assessed by MTT assay.
(A) Jurkat cells were transfected with scrambled siRNA (Scsi) or CRBN siRNA (CRBNsi). Whole cell lysates were subjected to immunoblotting using indicated Abs. (B) Jurkat cells transfected with Scsi or CRBNsi were cultured with pomalidomide (1 μM) for 16 h. Whole cell lysates were subjected to immunoblotting using indicated Abs. (C) Jurkat cells were transfected with Scsi or Zap-70 siRNA (Zap-70si) (left panel). The transfectants were further cultured for 72 h, and cell growth was assessed by MTT assay (right panel).
Background: In western blotting, separated proteins are transferred to a membrane and probed.

Turning to `Nc1cccc2c1C(=O)N(C1CCC(=O)NC1=O)C2=O` (centres unmarked) [pomalidomide], for the setting “CRBN siRNA, pomalidomide 1 μM”, the “p-Zap-70 induced by pomalidomide in CRBN-knockdown versus control Sc KD cells” value is “No significant change”. Also, the “p-Zap-70 (immunoblotting)” value (pomalidomide 0.5 and 1 μM) is reported as “similarly induced p-Zap-70 in Jurkat cells in a dose-dependent fashion”.
